Test results taken from PubChem BioAssay AID687000 (Broad Institute, 2013).
Several values for one entry are separate records, joined by “and”; a condition that tells them apart may be missing. Equal values may be shown once. Activity calls are given as the source filed them.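 The calls were made as follows: active = fitted dose curve reaches 40% lysis signal rise at or below the highest valid concentration tested for that sample; inconclusive = flat fit between 30% and 70%, or poor curve fit; inactive = signal falls, stays flat within 30%, or no crossing.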

System: C. neoformans lysis, adenylate kinase release luminescence, 4 h
Assay: C. neoformans lysis by adenylate kinase leakage – AK release luminescence, cherry-picks, dose response (AID 687000)

SMILES | AC40
CCCCN1C(=S)NC[C@@H]1Cc1ccccc1 | 5.11 µM
CCCC(=O)N1CCC1(C)C(=O)Nc1ccc(C)cc1 (centres undefined) | > 28.5 µM (inactive)
COc1cccc(S(=O)(=O)N(C)C[C@@H]2OCc3ccccc3-c3ccccc3C(=O)N([C@@H](C)CO)C[C@@H]2C)c1 | > 15 µM (inactive)
Cc1noc(C)c1S(=O)(=O)Nc1ccc2c(c1)CC(=O)N([C@H](C)CO)C[C@H](C)[C@H](CN(C)S(=O)(=O)c1cccs1)O2 | > 15 µM (inactive)
O=C(NC(=S)Nc1ccccc1N1CCOCC1)c1cccc([N+](=O)[O-])c1 | 5.69 µM
CCN1C(=S)N[C@@H](c2ccccc2)C(C(=O)OC)=C1C | > 15 µM (inactive)
COc1ccc(NC(=S)NCc2ccc(Cl)cc2)c(OC)c1 | 4.16 µM
Cc1cccc(C)c1NC(=O)CN(C)C(=O)C1CC1C (centres undefined) | > 15 µM (inactive)
COc1cccc(-c2ccc3c(c2)[C@H]2[C@H](CCN2C(=O)Cc2ccncc2)[C@H](CO)N3C)c1 | > 15 µM (inactive)
COCCN1C(=S)N[C@@H](c2ccccc2)C(C(=O)OC)=C1C | 13.5 µM
COCC(=O)NC[C@H]1N[C@H](CO)[C@H]1c1ccc(C2=CCCC2)cc1 | > 15 µM (inactive)
Cc1ccc(OCCn2c(=S)[nH]c3ccccc32)c(C(C)C)c1 | 0.883 µM
S=C(NCc1ccccc1)NCC1COc2ccccc2O1 (centres undefined) | 9.32 µM
CC[C@H](C)[C@@H]1NC(=O)CNC(=O)c2csc(n2)[C@H](C(C)(C)O)OC(=O)C(C)(C)[C@H](CCCC(C)(Cl)Cl)OC(=O)c2csc1n2 | 2.66 µM
COc1ccccc1/C=N/NC(=S)NCc1ccco1 | > 15 µM (inactive)
COC(=O)C1=C(C)N(Cc2ccc(F)cc2)C(=S)NC1c1ccccc1 (centres undefined) | 2.68 µM
O=C(N[C@H]1CC[C@H](CCn2cc(-c3ccccn3)nn2)O[C@H]1CO)c1ccc(F)cc1 | > 15 µM (inactive)
COC(=O)C1=C(C)N(Cc2ccc(F)cc2)C(=S)NC1c1cccc(Br)c1 (centres undefined) | 6.51 µM
COc1cccc(NC(=S)N2CCC(Cc3ccccc3)CC2)c1 | 3.35 µM
CC(C)NC(=O)N(C)C[C@H]1OCCCC[C@H](C)Oc2ccc(NC(=O)c3ccccc3)cc2C(=O)N([C@@H](C)CO)C[C@@H]1C | > 15 µM (inactive)
O=C(Nc1ccccc1N1CCOCC1)c1cccc([N+](=O)[O-])c1 | > 7.5 µM (inactive)
COC(=O)C1=C(C)N(Cc2ccc(F)cc2)C(=S)NC1c1cccc(F)c1 (centres undefined) | 14.2 µM and 2.63 µM
Cc1cc(C)c(NC(=O)C2CCCN2CCC(C)C)c(C)c1 (centres undefined) | > 15 µM (inactive)

SMILES | AC40
N#Cc1ccc(C23CC4(C2)[C@H](CN(Cc2ccc(C(F)(F)F)cc2)[C@@H]4c2ccccc2)C3c2ccc(C(F)(F)F)cc2)cc1 (some centres undefined) | > 15 µM (inactive)
COC(=O)C1=C(C)N(Cc2ccc(F)cc2)C(=S)NC1c1ccc(F)cc1 (centres undefined) | 6.96 µM
Cc1cc(C(=O)NC(=S)Nc2ccccc2N2CCOCC2)ccc1[N+](=O)[O-] | 4.95 µM
C[C@H](CO)N1C[C@H](C)[C@H](CN(C)Cc2ccc(-c3ccccc3)cc2)Oc2c(NC(=O)c3ccncc3)cccc2C1=O | > 15 µM (inactive)
CNC[C@@H]1OCCCC[C@@H](C)Oc2ccc(NC(=O)Nc3ccc4c(c3)OCO4)cc2C(=O)N([C@H](C)CO)C[C@@H]1C | > 15 µM (inactive)
CCc1nc(N2CCCCC2C)c2oc3ccccc3c2n1 (centres undefined) | 1.65 µM
O=C(CSc1ncnc2c1cnn2-c1cccc(Cl)c1)NCC1CCCO1 (centres undefined) | > 15 µM (inactive)
COC(=O)C1=C(C)N(Cc2ccccc2)C(=S)NC1c1ccc(Br)cc1 (centres undefined) | 2.58 µM
Cc1noc(C)c1NC(=O)N(C)C[C@H]1OCCCC[C@H](C)Oc2ccc(NC(=O)NC(C)C)cc2C(=O)N([C@@H](C)CO)C[C@@H]1C | > 15 µM (inactive)
CCc1ccc(C(C)NC(=S)NCc2ccc(F)cc2)cc1 (centres undefined) | 0.511 µM
O=C(NCCN1CCCCC1)[C@H]1N[C@H]2c3ccc(-c4ccncc4)c(=O)n3C[C@H]2[C@@H]1CO | 12.7 µM
C[C@@H]1CN([C@H](C)CO)S(=O)(=O)c2ccc(C#C[C@@H](C)O)cc2O[C@@H]1CN(C)Cc1ccncc1 | > 15 µM (inactive)
C[C@H]1CN([C@@H](C)CO)C(=O)Cc2cc(NS(C)(=O)=O)ccc2O[C@@H]1CN(C)Cc1ccc(Cl)c(Cl)c1 | > 15 µM (inactive)
O=C(Cc1ccccc1)N[C@H]1C=C[C@@H](CC(=O)N2CCOCC2)O[C@@H]1CO | 4.91 µM
COC(=O)C1=C(C)N(Cc2ccc(Cl)cc2)C(=S)NC1c1ccc(OC)cc1 (centres undefined) | 11.8 µM
C[C@@H]1CN([C@@H](C)CO)C(=O)c2cc(NC(=O)C3CC3)ccc2O[C@H]1CN(C)CC1CCCCC1 | > 15 µM (inactive)
C[C@@H]1CCCCO[C@H](CN(C)C(=O)CCCN(C)C)[C@@H](C)CN([C@H](C)CO)C(=O)c2cc(NC(=O)Cc3ccccc3)ccc2O1 | > 15 µM (inactive)
CCCNC(C)C(=O)Nc1ccccc1C (centres undefined) | > 15 µM (inactive)
COc1ccc(N2CCN(C(=O)Cc3cccs3)CC2)cc1 | > 15 µM (inactive)
CC(C)NC(=O)Nc1ccc2c(c1)C(=O)N([C@@H](C)CO)C[C@@H](C)[C@@H](CN(C)C(=O)NC(C)C)OCCCC[C@@H](C)O2 | > 15 µM (inactive)
Cc1ccc(CSc2ncnc3c2cnn3-c2ccc(C)cc2)cc1 | > 15 µM (inactive)
CCOC(=O)c1c(-c2ccc(-c3ccccc3)cc2)csc1NC(=O)CNCCN(C)C | 1.62 µM
COC(=O)C1=C(C)N(CC(C)C)C(=S)NC1c1ccc(Cl)cc1 (centres undefined) | 2.36 µM and 0.971 µM

SMILES | AC40
COC(=O)C1=C(C)N(Cc2ccc(Br)cc2)C(=S)NC1c1ccc(F)cc1 (centres undefined) | 4.62 µM and 7.82 µM
CCNC(=O)C[C@H]1CC[C@H](NC(=O)NC2CCCCC2)[C@@H](CO)O1 | > 15 µM (inactive)
Cc1ccc(C)c(NC(=O)C2(C)CCCN2C(=O)C(C)C)c1 (centres undefined) | 7.4 µM
Fc1ccccc1NC(=S)NN(Cc1ccccc1)c1ccccc1 | 5.17 µM
COC(=O)C1=C(C)N(Cc2ccc(Br)cc2)C(=S)NC1c1ccccc1 (centres undefined) | 2.1 µM
C[C@@H]1CN([C@@H](C)CO)C(=O)CCCn2nncc2CO[C@H]1CN(C)C(=O)Oc1cccc2ccccc12 | > 15 µM (inactive)
CC(C)NC(=O)Nc1ccc2c(c1)CC(=O)N([C@@H](C)CO)C[C@@H](C)[C@H](CN(C)C(=O)Nc1ccc3c(c1)OCO3)O2 | > 15 µM (inactive)
C[C@H](CO)N1C[C@H](C)[C@@H](CN(C)CC2CCOCC2)Oc2ncc(C#Cc3ccc(F)cc3)cc2C1=O | > 15 µM (inactive)
Cc1cccc(-c2ccc([C@H]3[C@H](CO)N4CCCCN(C(=O)c5ccc6c(c5)OCO6)C[C@@H]34)cc2)c1 | > 15 µM (inactive)
COc1ccccc1C#Cc1ccc2c(c1)O[C@H](CN(C)C(C)=O)[C@H](C)CN([C@@H](C)CO)S2(=O)=O | > 15 µM (inactive)
COC(=O)C1=C(C)N(CC(C)C)C(=S)NC1c1ccc(-c2ccccc2)cc1 (centres undefined) | > 15 µM (inactive) and 1.4 µM
COC(=O)C1=C(C)N(C)C(=S)NC1c1ccccc1 (centres undefined) | > 26 µM (inactive)
C[C@H](CO)N1C[C@H](C)[C@H](CN(C)C(=O)Nc2ccc3c(c2)OCO3)Oc2ncc(C#CC(C)(C)O)cc2C1=O | > 15 µM (inactive)
CC(C)CC#Cc1cnc2c(c1)C(=O)N([C@H](C)CO)C[C@H](C)[C@@H](CN(C)Cc1cccc(F)c1)O2 | > 15 µM (inactive)
CO[C@@H]1CN(C)C(=O)c2cc(NS(=O)(=O)c3cccc(C)c3)ccc2OC[C@@H](C)NC[C@H]1C | > 15 µM (inactive)
CCCOc1ccc(CNC(=S)NCc2ccc(OC(C)C)cc2)cc1 | 14.3 µM
S=C(Nc1ccc(Cl)cc1Cl)Nc1ccccc1Oc1ccccc1 | 3.3 µM
C[C@H](CO)N1C[C@H](C)[C@@H](CN(C)Cc2ccc(-c3ccccc3)cc2)Oc2ccc(NC(=O)Nc3ccc(C(F)(F)F)cc3)cc2C1=O | > 15 µM (inactive)
CCOC(=O)NC(=S)Nc1ccc(C(C)(C)C)cc1 | 1.21 µM
COc1ccc(CNC(=S)NCc2ccc(OC)cc2)cc1 | > 15 µM (inactive)
COc1ccc(C(=O)NC(=S)Nc2cccc(Cl)c2N2CCOCC2)cc1[N+](=O)[O-] | > 15 µM (inactive)
CCCCNC(=S)N/N=C/c1ccc(C#N)cc1 | 4.58 µM
COc1ccccc1NC(=S)NCc1ccccc1Cl | 7.43 µM

SMILES | AC40
COC(=O)C1=C(C)N(Cc2ccc(F)cc2)C(=S)NC1c1ccc(Cl)cc1 (centres undefined) | > 15 µM (inactive)
Cc1ccc(C(=O)NC(=S)Nc2ccc(N3CCOCC3)cc2)cc1 | 11.9 µM
Cc1cccc(C)c1NC(=O)C1CCCN1C(=O)NCc1ccccc1 (centres undefined) | > 15 µM (inactive)
CC(C)CC#Cc1cnc2c(c1)C(=O)N([C@H](C)CO)C[C@H](C)[C@H](CN(C)C(=O)c1cccnc1)O2 | > 15 µM (inactive)
S=C(Nc1ccccc1Oc1ccccc1)Nc1cccc(Cl)c1Cl | > 15 µM (inactive)
Cc1ccc(S(=O)(=O)N[C@H]2C=C[C@@H](CC(=O)N3CCC(Cc4ccccc4)CC3)O[C@H]2CO)cc1 | > 15 µM (inactive)
COC(=O)C1=C(C)N(Cc2ccc(Cl)cc2)C(=S)NC1c1cccc(Cl)c1 (centres undefined) | 2.95 µM
COCC(=O)N(C)C[C@H]1Oc2ncc(-c3ccccc3F)cc2C(=O)N([C@@H](C)CO)C[C@H]1C | > 15 µM (inactive)
COC(=O)C1=C(C)N(Cc2ccccc2)C(=S)N[C@H]1c1cccc(C(F)(F)F)c1 | > 15 µM (inactive)
C[C@H](O)C#Cc1ccc2c(c1)O[C@H](CN(C)Cc1ccncc1)[C@H](C)CN([C@H](C)CO)S2(=O)=O | > 15 µM (inactive)
C[C@@H]1CN([C@H](C)CO)S(=O)(=O)c2ccc(C#CC3CC3)cc2O[C@H]1CN(C)CC1CCOCC1 | > 15 µM (inactive)
S=C(Nc1ccccc1)Nc1cc(Cl)ccc1Oc1ccccc1 | > 7.5 µM (inactive)
CO[C@@H]1CN(C)C(=O)c2ccc(NC(C)=O)cc2OC[C@@H](C)N(C(=O)Cc2cccnc2)C[C@H]1C | > 13.5 µM (inactive)
O=C(C1CCOCC1)N1CC[C@@H]2[C@@H](CO)Nc3ccc(Br)cc3[C@@H]21 | > 15 µM (inactive)
Cc1cc(C)c(NC(=O)C2CCCN2C(=O)NC2CCCCC2)c(C)c1 (centres undefined) | 10.4 µM
CC(C)CC1(C)N=C(c2ccccc2)C(=S)N1 (centres undefined) | 11.2 µM
COC(=O)C1=C(C)N(Cc2ccccc2)C(=S)N[C@H]1c1ccc(Br)cc1 | 2.89 µM and 9.81 µM
Cc1ccc(NC(=O)N2CCCC2C(=O)Nc2c(C)cc(C)cc2C)cc1 (centres undefined) | > 15 µM (inactive)
COCC(=O)Nc1ccc2c(c1)C(=O)N(C)C[C@H](OC)[C@@H](C)CN(C(=O)c1ccccc1)[C@@H](C)CO2 | > 15 µM (inactive)
Cc1ccc2nc(C)c3c(c2c1)OC(C(C)(Cl)Br)C3 (centres undefined) | > 15 µM (inactive)
